In paper PMC4472559 (Journal of the American Chemical Society, 2015):

Target: transthyretin (TTR^WT) (Homo sapiens, UniProt P02766)
Assay: isothermal titration calorimetry
Format: binding

## O=S(=O)(F)Oc1ccc(-c2nnc(-c3cc(Cl)c(O)c(Cl)c3)o2)cc1 [compound 4, probe 4]
  Kd: 2 nM
